Measured values: patent publication US8415469B2, “Compounds and methods for kinase modulation, and indications therefor” (Plexxikon Inc., priority 2005, dated 2013)

Experiments:
Type in all cases: biochemical
[1] = target: T1, Flt4 (Homo sapiens, UniProt P35916); experiment: AlphaScreen kinase assay, Flt4; details: read-out: IC50, activity toward kinase Flt4
T1 construct: purchased ProQinase GmbH (Freiburg, Germany)
Description: AlphaScreen assay was used to screen additional kinases. The assay is similarly dependent on the phosphorylation of a peptide substrate. In this assay, an antibody that recognizes phosphorylated substrate is bound to an acceptor bead. The peptide substrate is attached to biotin, which binds to a donor head that contains streptavidin. Thus phosphorylated substrate is bound by antibody and streptavidin, bringing the donor and acceptor heads into close proximity when kinase is not inhibited. The donor produces singlet oxygen which results in emission from the acceptor when they are in close proximity. Conversely, when kinase is inhibited, the donor and acceptor beads are not associated and the emission from the acceptor is reduced.
AlphaScreen assays were done using compounds dissolved in DMSO to a concentration of 20 mM. The compounds were diluted accordingly to the desired final concentrations in each sample well, using 1:3 serial dilution for a total of 8 concentration points.

[2] = target: T2, FGFR1 (Homo sapiens, UniProt P11362, C488A/C584S); experiment: AlphaScreen kinase assay, FGFR1; details: read-out: IC50, activity toward kinase FGFR
T2 construct: P1351.pET N6 BI-PTP FGFR A458-E765-X C488A, C584S; made in house; host or cells: E. coli (PTP1B co-expressed)

[3] = target: T3, Ret (Homo sapiens, UniProt P07949); experiment: AlphaScreen kinase assay, Ret; details: read-out: IC50, activity toward kinase Ret
T3 construct: P1378.pET-SF BI-PTP RET H661-R1012 HIS; made in house
T3 sequence (P07949 with tags, fused parts or gaps): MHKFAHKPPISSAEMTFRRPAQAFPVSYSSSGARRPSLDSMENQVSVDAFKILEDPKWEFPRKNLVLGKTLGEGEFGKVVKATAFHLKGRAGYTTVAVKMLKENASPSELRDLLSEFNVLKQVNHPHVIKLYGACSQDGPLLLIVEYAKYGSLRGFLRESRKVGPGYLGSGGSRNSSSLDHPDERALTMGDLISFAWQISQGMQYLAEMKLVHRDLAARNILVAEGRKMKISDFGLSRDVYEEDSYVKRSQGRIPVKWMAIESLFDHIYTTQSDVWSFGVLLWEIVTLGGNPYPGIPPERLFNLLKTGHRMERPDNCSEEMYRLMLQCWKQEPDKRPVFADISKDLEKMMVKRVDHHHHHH

[4] = target: T4, Zap70 (Homo sapiens, UniProt P43403); experiment: AlphaScreen kinase assay, Zap70; details: read-out: IC50, activity toward kinase Zap70
T4 construct: P1868.pFastBac1 ZAP70 D327-G606 HIS, WT; His7 (HHHHHHH) (C); made in house
T4 sequence (P43403 with tags, fused parts or gaps): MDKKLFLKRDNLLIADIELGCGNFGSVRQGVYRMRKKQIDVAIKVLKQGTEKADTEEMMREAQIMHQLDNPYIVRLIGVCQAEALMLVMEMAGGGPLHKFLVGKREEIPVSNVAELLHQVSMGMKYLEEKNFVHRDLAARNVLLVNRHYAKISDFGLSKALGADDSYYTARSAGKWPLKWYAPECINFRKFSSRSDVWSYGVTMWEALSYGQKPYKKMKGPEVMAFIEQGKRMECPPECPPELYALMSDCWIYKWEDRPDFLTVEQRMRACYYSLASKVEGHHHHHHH
Procedure, shortened: (§1)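 AlphaScreen read-out: acceptor-bead emission falls when kinase is inhibited. Biotin-peptide substrate captured on streptavidin donor beads, phospho-specific antibody on acceptor beads. 8 concentrations, 1:3 dilution series, from 20 mM DMSO stocks.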

[5] = target: T5, B-Raf V600E (Homo sapiens, UniProt P15056, V600E); experiment: AlphaScreen kinase assay, B-Raf V600E; details: read-out: IC50, activity toward kinase B-Raf V600E
T5 construct: P4254. pFastBacBD-CDC37 BRAF D437-K722-X, V600E; His6 with pFastBac HT leader (TEV site) (N); made in house; host or cells: Sf9 (baculovirus; chaperone CDC37 co-expressed)

[6] = target: T6, Kit (Homo sapiens, UniProt P10721); experiment: AlphaScreen kinase assay, Kit; details: read-out: IC50, activity toward kinase Kit
T6 construct: P1332.N6 BI PTP KIT M552-K948-X COD; His6 (N); made in house; host or cells: E. coli (PTP1B co-expressed)

[7] = target: T7, Kdr (Homo sapiens, UniProt P35968); experiment: Z'-Lyte FRET kinase assay (Invitrogen), Kdr; details: read-out: IC50, activity toward kinase Kdr
T7 construct: purchased Invitrogen (assay run by Invitrogen)

[8] = target: T8, Fak (Homo sapiens, UniProt Q05397); experiment: AlphaScreen kinase assay, Fak; details: read-out: IC50, activity toward kinase Fak
T8 construct: P1358.pFastBacHtb FAK S411-Q686-X; His6 with pFastBacHTb leader (TEV site) (N); made in house; host or cells: Sf9 (baculovirus)

[9] = target: T9, Flt1 (Homo sapiens, UniProt P17948); experiment: AlphaScreen kinase assay, Flt1; details: read-out: IC50, activity toward kinase Flt1
T9 construct: P1826.pETN6 BI-PTP FLT1 M799-D1165-X WT; His6 (N); made in house; host or cells: E. coli (PTP1B co-expressed)
T9 sequence (P17948 with tags, fused parts or gaps): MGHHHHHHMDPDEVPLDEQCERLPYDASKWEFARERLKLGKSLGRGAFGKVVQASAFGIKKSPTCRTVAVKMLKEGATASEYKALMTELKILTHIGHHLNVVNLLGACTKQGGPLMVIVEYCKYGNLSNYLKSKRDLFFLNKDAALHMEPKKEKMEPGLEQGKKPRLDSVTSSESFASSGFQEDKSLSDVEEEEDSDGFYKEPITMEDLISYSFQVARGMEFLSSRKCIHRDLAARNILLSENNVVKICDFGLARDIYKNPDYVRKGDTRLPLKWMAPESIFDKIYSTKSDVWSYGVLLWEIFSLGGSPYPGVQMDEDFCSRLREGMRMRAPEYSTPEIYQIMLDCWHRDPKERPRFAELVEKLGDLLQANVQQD

[10] = target: T10, Abl (Homo sapiens, UniProt P00519); experiment: AlphaScreen kinase assay, Abl; details: read-out: activity toward kinase Abl, IC50
T10 construct: P1121. pET-SPEC BI-PTP Abl G227-V515-X; His6 (N); made in house; host or cells: E. coli (PTP1B co-expressed)
T10 sequence (P00519 with tags, fused parts or gaps): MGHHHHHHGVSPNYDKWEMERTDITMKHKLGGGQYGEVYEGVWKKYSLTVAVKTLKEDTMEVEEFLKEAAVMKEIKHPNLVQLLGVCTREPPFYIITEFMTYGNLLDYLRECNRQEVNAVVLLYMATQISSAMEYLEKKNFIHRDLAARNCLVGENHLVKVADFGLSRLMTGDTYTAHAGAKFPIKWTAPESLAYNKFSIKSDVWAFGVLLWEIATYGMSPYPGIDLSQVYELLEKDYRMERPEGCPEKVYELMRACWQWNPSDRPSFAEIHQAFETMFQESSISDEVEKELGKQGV
Procedure, shortened: as §1

[11] = target: T11, Src (Homo sapiens, UniProt P12931); experiment: AlphaScreen kinase assay, Src; details: read-out: IC50, activity toward kinase Src
T11 construct: P1144. pET-N6 BI-PTP SRC V86-L536-X; made in house

[12] = target: MAP4K4 (Homo sapiens, UniProt O95819); experiment: AlphaScreen kinase assay, MAP4K4; details: read-out: IC50, activity toward kinase MAP4K4
[13] = target: T12, Jnk3 (Homo sapiens, UniProt P53779); experiment: AlphaScreen kinase assay, Jnk3; details: read-out: IC50, activity toward kinase Jnk3
T12 construct: purchased Upstate Biotechnology

[14] = target: T13, Fms (Homo sapiens, UniProt P07333); experiment: AlphaScreen kinase assay, Fms; details: read-out: IC50, activity toward kinase Fms
T13 construct: purchased Upstate Biotechnology

[15] = target: T14, c-Raf-1 (Homo sapiens, UniProt P04049); experiment: AlphaScreen kinase assay, c-Raf-1; details: read-out: IC50, activity toward kinase c-Raf-1
T14 construct: purchased Upstate Biotechnology

[16] = target: T15, Jnk1 (Homo sapiens, UniProt P45983); experiment: AlphaScreen kinase assay, Jnk1; details: read-out: IC50, activity toward kinase Jnk1
T15 construct: purchased Upstate Biotechnology

Measured: IC50

T12 sequence (P53779 whole entry): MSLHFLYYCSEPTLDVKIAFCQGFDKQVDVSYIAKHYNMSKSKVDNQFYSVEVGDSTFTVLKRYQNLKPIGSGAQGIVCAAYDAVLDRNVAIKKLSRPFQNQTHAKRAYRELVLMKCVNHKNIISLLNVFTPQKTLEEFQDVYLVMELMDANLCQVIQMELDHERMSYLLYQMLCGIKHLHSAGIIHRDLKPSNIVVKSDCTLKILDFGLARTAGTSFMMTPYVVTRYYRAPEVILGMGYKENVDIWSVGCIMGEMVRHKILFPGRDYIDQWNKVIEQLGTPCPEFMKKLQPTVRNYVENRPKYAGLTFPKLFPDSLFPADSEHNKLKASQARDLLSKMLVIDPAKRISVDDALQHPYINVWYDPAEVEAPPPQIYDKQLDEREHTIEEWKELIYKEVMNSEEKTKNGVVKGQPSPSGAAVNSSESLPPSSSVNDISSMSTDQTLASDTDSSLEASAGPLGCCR
T11 sequence (P12931 with tags, fused parts or gaps): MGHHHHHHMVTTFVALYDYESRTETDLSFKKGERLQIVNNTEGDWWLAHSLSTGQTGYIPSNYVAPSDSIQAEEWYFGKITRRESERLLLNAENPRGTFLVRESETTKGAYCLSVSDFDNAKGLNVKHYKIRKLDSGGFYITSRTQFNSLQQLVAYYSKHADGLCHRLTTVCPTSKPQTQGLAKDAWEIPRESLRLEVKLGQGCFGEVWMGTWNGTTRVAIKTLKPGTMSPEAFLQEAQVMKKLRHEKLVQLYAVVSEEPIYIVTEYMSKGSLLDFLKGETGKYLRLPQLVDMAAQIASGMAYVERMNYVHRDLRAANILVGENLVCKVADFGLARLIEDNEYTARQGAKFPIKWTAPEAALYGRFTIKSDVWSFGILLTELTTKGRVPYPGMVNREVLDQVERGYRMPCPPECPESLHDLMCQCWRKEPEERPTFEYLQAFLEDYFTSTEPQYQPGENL
T6 sequence (P10721 with tags, fused parts or gaps): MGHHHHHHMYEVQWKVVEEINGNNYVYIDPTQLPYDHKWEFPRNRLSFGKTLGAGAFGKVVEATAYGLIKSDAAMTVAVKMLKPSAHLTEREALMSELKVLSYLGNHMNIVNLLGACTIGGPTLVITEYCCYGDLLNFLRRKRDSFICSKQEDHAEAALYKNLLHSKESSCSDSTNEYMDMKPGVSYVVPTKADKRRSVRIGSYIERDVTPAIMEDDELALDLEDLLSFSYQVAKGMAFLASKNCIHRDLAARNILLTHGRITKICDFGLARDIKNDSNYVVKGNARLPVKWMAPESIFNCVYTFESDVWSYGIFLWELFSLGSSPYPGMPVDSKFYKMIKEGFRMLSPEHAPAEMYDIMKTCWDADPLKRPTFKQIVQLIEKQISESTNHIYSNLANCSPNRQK
T1 sequence (P35916 25-1363): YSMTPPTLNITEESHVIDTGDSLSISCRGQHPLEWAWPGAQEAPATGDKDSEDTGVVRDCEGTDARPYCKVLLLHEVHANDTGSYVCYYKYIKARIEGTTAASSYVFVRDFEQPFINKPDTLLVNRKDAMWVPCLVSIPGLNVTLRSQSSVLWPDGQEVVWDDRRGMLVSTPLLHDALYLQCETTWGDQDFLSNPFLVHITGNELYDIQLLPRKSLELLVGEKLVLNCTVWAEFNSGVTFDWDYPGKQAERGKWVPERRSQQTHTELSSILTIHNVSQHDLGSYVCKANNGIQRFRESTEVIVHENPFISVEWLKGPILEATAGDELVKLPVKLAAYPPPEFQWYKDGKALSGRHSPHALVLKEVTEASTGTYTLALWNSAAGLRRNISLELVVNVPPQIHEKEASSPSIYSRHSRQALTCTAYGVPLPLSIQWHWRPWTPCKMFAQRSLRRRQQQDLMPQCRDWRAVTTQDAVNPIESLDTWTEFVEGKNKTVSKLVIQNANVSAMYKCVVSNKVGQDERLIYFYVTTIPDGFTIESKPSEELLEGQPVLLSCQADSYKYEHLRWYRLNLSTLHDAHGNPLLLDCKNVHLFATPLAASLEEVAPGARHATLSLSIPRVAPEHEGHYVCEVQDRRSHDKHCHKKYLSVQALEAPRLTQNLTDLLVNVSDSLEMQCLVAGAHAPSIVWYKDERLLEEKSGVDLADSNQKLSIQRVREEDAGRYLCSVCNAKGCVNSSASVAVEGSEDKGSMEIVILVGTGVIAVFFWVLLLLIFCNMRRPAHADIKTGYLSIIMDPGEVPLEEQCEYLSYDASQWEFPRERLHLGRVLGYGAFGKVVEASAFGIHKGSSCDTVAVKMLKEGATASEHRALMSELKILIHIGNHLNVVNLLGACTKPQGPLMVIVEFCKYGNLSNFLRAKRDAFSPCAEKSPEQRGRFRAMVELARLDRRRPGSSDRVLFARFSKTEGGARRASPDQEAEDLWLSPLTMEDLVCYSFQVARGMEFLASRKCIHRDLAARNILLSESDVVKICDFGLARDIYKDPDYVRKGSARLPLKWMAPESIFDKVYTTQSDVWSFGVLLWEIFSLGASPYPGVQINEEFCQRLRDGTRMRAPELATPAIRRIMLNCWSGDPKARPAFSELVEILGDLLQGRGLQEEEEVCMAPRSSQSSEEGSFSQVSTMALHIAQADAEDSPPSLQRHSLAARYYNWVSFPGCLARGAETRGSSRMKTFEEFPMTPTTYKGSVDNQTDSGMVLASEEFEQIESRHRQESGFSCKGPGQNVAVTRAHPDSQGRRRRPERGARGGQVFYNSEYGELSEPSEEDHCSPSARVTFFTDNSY
T2 sequence (P11362 458-765 C488A/C584S): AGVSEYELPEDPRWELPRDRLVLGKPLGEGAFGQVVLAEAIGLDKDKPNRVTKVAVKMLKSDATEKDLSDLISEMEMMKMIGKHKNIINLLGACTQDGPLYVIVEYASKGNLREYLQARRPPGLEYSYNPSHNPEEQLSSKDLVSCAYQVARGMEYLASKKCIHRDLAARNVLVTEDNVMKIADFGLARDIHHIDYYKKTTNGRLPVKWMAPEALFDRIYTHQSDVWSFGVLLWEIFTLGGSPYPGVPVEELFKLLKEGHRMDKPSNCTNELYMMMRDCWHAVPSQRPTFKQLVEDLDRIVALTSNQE
T7 sequence (P35968 20-1356): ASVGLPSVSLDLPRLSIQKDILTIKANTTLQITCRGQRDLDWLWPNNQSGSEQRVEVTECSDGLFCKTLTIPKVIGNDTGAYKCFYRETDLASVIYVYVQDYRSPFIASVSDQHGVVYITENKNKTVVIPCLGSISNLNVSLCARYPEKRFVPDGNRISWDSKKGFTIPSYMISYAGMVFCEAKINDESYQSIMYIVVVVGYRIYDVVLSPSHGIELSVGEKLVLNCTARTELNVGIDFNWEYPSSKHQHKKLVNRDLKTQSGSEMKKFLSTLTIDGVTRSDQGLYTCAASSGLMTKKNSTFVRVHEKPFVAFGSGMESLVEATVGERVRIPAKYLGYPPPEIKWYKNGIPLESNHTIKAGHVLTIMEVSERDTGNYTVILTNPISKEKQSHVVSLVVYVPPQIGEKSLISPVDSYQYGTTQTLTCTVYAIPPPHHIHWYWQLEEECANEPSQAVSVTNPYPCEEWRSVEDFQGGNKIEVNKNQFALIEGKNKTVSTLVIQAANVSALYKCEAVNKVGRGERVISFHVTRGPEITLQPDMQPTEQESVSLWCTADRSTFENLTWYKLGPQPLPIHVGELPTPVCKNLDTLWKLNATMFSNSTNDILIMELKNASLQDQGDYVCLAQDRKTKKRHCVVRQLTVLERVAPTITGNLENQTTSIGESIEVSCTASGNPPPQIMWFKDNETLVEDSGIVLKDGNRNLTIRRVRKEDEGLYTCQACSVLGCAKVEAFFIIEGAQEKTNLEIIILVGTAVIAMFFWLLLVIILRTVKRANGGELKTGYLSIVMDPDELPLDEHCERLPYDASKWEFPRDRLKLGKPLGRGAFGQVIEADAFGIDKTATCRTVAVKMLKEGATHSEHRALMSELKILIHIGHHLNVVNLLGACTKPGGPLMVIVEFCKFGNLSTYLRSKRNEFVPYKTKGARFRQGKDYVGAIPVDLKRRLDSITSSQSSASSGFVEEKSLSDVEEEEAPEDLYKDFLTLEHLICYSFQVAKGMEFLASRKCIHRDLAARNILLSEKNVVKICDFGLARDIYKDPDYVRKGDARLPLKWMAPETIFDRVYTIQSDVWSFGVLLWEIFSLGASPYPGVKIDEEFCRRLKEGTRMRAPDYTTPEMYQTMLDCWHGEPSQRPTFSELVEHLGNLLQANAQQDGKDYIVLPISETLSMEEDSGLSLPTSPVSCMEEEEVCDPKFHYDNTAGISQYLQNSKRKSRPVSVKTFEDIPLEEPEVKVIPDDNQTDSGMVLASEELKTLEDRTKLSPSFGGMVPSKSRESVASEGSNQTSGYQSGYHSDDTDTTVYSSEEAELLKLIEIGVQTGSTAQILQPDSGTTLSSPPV
T5 sequence (P15056 with tags, fused parts or gaps V600E): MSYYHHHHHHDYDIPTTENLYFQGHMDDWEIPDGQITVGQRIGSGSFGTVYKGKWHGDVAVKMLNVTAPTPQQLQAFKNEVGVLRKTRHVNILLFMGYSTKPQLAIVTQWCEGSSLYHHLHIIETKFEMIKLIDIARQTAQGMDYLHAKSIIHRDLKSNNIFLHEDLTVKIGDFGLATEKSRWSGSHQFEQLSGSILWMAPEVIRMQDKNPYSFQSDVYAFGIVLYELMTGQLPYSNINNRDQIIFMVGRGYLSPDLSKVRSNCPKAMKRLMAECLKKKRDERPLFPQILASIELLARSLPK
T8 sequence (Q05397 411-686): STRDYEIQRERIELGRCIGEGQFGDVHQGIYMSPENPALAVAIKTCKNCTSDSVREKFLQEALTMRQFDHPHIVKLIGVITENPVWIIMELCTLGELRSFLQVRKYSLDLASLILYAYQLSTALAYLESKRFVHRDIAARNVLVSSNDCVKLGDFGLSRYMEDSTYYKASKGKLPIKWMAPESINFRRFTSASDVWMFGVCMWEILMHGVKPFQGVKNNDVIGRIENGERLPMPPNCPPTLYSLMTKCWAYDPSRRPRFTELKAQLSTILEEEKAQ

O=C(c1cccc(F)c1F)c1c[nH]c2nccc(-c3cc(F)cc(F)c3)c12 [Compound P-0205]
≤ 10 µM: [1] | [2] | [3] | [4] | [5] | [6]

Cc1cc(C(=O)c2c[nH]c3ncc(-c4cccc(C(N)=O)c4)cc23)n(C)n1 [Compound P-0224]
≤ 10 µM: [1] | [7] | [8] | [3] | [9] | [10] | [6]

O=C(c1cccc(F)c1)c1c[nH]c2nccc(-c3cc(F)cc(F)c3)c12 [Compound P-0316]
≤ 10 µM: [1] | [7] | [2] | [11] | [3] | [10] | [6]

COc1cccc(C(=O)C2C=Nc3nccc(-c4cc(F)cc(F)c4)c32)c1 (stereo not drawn) [Compound P-0453]
≤ 10 µM: [1] | [2] | [11] | [3] | [5] | [10] | [6]

O=C(c1ccc2ccccc2c1)c1c[nH]c2ncccc12 [Compound P-0495]
≤ 10 µM: [1] | [7] | [2] | [3] | [12] | [4] | [6]

NC(=O)c1ccc(-c2cnc3[nH]cc(C(=O)c4cccc(O)c4)c3c2)cc1 [Compound P-0645]
≤ 10 µM: [1] | [7] | [2] | [11] | [3] | [13] | [5] | [10] | [6]

COc1ccc(F)c(C(=O)c2c[nH]c3ncc(-c4cccs4)cc23)c1 [Compound P-0656]
≤ 10 µM: [1] | [2] | [3] | [14] | [13] | [5] | [9] | [15] | [10] | [6]

NC(=O)c1ccc(-c2cnc3[nH]cc(C(=O)c4ccccc4F)c3c2)cc1 [Compound P-0691]
≤ 10 µM: [1] | [7] | [2] | [8] | [3] | [13] | [5] | [16] | [9] | [10] | [6]

Nc1cccc(-c2cnc3[nH]cc(C(=O)c4ccc5nsnc5c4)c3c2)c1 [Compound P-0703]
≤ 10 µM: [1] | [7] | [3] | [13] | [4] | [6]

Nc1cccc(-c2cnc3[nH]cc(C(=O)c4ccc(Cl)cc4)c3c2)c1 [Compound P-0738]
≤ 10 µM: [1] | [7] | [3] | [13] | [10] | [6]

O=C(c1cccc(Cl)c1Cl)c1c[nH]c2ncc(-c3cccnc3)cc12 [Compound P-0751]
≤ 10 µM: [1] | [7] | [2] | [3] | [5] | [9] | [10] | [6]

Cc1cc(C(=O)c2c[nH]c3ncc(-c4ccc(C(N)=O)cc4)cc23)n(C)n1 [Compound P-0762]
≤ 10 µM: [1] | [7] | [3] | [5] | [10] | [6]
